Key:
[1] = test system: premenopausal females with FSAD and/or HSDD; assay: Example 1: placebo-controlled at-home trial of subcutaneous bremelanotide, efficacy (SSEs, FSFI, FSDS-DAO); assay type: in vivo, human
Description: A multi-centered, placebo-controlled, randomized, parallel group trial with fixed dose levels and designed to identify appropriate doses of bremelanotide administered by subcutaneous injection in premenopausal females with FSAD and/or HSDD, under the conditions of home use, was conducted. […] Subjects who continued to qualify for the trial then received 2 single in-clinic doses of randomized treatment (double-blind; approximately one week apart), followed by 12 weeks of double-blind treatment at home (subjects self-administered treatment as needed). Subjects were randomized (1:1:1:1) to one of four study treatment groups (placebo or doses with 0.75, 1.25, or 1.75 mg net weight bremelanotide). Randomization occurred immediately prior to the first in-clinic dose of double-blind treatment. Study drug and placebo was provided as pre-filled syringes in 0.3 mL volume, with subjects instructed on self-administration into the anterior thigh or abdomen. Enrolled subjects were premenopausal women who met the diagnostic criteria for […], or mixed […], utilizing a diagnostic screening guide including categorization of the sexual dysfunction as both acquired (vs. lifelong) and generalized (vs. situational). Subjects enrolled had previously been sexually “functional;” that is, experienced sexual arousal during sexual activity and/or a normal level of desire at some point in the past for a period of at least 2 years. […] Enrolled subjects were provided with an electronic diary system (eDiary) with instructions to complete an FSEP-R questionnaire with each sexual encounter. At selected in-clinic visits, subjects completed other assessment questionnaires, including […]-DAO, […] and WITS-9. In addition, various vital sign measures were conducted and blood and urine samples collected at selected in-clinic visits. […] The measurement period was defined as the number of events during the last four weeks of treatment minus the number of events during the baseline period, with outcomes reported for pooled results of women taking the two highest bremelanotide dose levels versus placebo. […] The FSFI is a 19-item questionnaire which provides for an additional measurement of changes over a longer recall period. • FSFI total score improvement (mean change of 3.55 vs. 1.88, p=0.0017) • Reduced associated distress related to sexual dysfunction, as measured by the Female Sexual Distress Scale-DAO (FSDS-DAO). The FSDS-DAO 15-item questionnaire is designed to assess and quantify the change in personal distress associated with […]-DAO total score improvement (mean change of -11.1 vs. -6.8, p=0.036).

[2] = test system: premenopausal and postmenopausal women with FSAD; assay: Intranasal Phase 2 studies: efficacy, adverse events, discontinuation; assay type: in vivo, human
Description: In the bremelanotide premenopausal arm, 42.5% of the subjects were discontinued due to hypertension, nausea, vomiting or myalgia. Subjects received a 10 mg intranasal dose of bremelanotide, with premenopausal subjects determined to have a mean plasma concentration of 88.5±51.9 ng/mL and a % CV of 58.6, and postmenopausal subjects determined to have a mean plasma concentration of 93.2±68.5 ng/mL and a % CV of 73.5. The minimum and maximum plasma concentration levels for all women at thirty minutes post dose range from 0.0 ng/mL to 207.0 ng/mL.
Results with premenopausal women in a placebo-controlled, randomized, double-blind, parallel group, at-home exploratory study to evaluate the efficacy and safety of intranasally administered bremelanotide in subjects with female sexual arousal disorder (FSAD) were compared against results in the study of Example 1. In the intranasal study, a total of 76 premenopausal subjects were randomized, with 40 subjects to receive bremelanotide and 36 to receive placebo. Twenty-two subjects treated with bremelanotide and 29 treated with placebo completed the study, with 16 subjects who received bremelanotide (40%) discontinuing from the study due to an adverse event. This compares to the study of Example 1, in which as shown by Table 6 only 8% of subjects on the 1.75 mg subcutaneous dose discontinuing due to an adverse event.

[3] = test system: women diagnosed with sexual arousal disorder; details: single intranasal dose of 20 mg, cited from earlier work
[4] = pooled 1.25 mg and 1.75 mg doses, baseline to end of study
[5] = 10 mg intranasal, premenopausal, 40 subjects randomized

SMILES: CCCC[C@H](NC(C)=O)C(=O)N[C@H]1CC(=O)NCCCC[C@@H](C(=O)O)NC(=O)[C@H](Cc2c[nH]c3ccccc23)NC(=O)[C@H](CCCNC(=N)N)NC(=O)[C@@H](Cc2ccccc2)NC(=O)[C@H](Cc2c[nH]cn2)NC1=O [bremelanotide, Ac-Nle-cyclo(-Asp-His-D-Phe-Arg-Trp-Lys)-OH]
- efficacy on all key endpoints in HSDD-only and mixed HSDD/FSAD subgroups ([1]; 1.25 mg, 1.75 mg, and/or 1.25/1.75 mg pooled, exploratory analyses): statistically significant efficacy or a clinically significant trend versus placebo
- Satisfying Sexual Events (SSEs), mean at baseline ([1]; pooled 1.25 mg and 1.75 mg doses): 1.6
- FSDS-DAO total score improvement, mean change [1, 4]: −11.1
- FSFI total score improvement, mean change [1, 4]: 3.55
- increase in SSEs [1, 4]: 50%
- Satisfying Sexual Events (SSEs), mean at end of study ([1]; pooled 1.25 mg and 1.75 mg doses, last four weeks of treatment): 2.4
- most optimal dose for efficacy ([1]; subcutaneous): 1.75 mg
- women with end-of-study FSFI and FSDS-DAO total score levels above 26.5 and 18 ([1]; versus placebo, exploratory analysis): higher percentage of women
- subjects discontinuing from the study due to an adverse event, number [2, 5]: 16
- subjects discontinuing from the study due to an adverse event, percent [2, 5]: 40%
- subjects reporting at least one adverse event ([2]; intranasal, postmenopausal subjects): 100%
- sexual desire and arousal compared to placebo ([2]; intranasal, premenopausal and postmenopausal women with FSAD, two Phase 2 trials): increase sexual desire and arousal compared to placebo
- subjects discontinued due to hypertension, nausea, vomiting or myalgia ([2]; intranasal, premenopausal arm): 42.5%
- subjects reporting at least one adverse event ([2]; intranasal, premenopausal subjects): 92.5%
- vaginal pulse amplitude measures ([3]; compared to placebo): without statistically relevant differences, compared to placebo
- reported feelings of sexual arousal [3]: statistically relevant reported feelings of sexual arousal
